# Data taken from patent publication US6844429B2, “Fullerene derivative and composition comprising the same” (San-Ei Gen F.F.I., priority 2001, dated 2005).
# System: not listed separately
# Assay: Quantum yield measurement of singlet oxygen (DPBF absorbance decay under light irradiation)
# Type: physicochemical
# Conditions: singlet oxygen quantum yield relative to tetraphenylporphyrin; DMSO, 27° C., 6.5×10^−7 M fullerene derivative, DPBF absorbance at 418 nm
# Method: A DMSO solution containing 5.5×10^−5 M of 1,3-diphenylisobenzofuran (DPBF) was prepared, maintaining the water temperature in a waterbath at 27° C. 3 mL of the DMSO solution was poured into a quartz cell and a DMSO solution containing 1.5×10^−5 M of fullerene derivatives was added so that the concentration of the resulting solution is set to 6.5×10^−7 M. Subsequently, oxygen was bubbled through the solution for one minute or more. The cell was set in position within the waterbath, stirred using a multistirrer and irradiated with light every ten seconds to measure the absorbance of the DPBF at 418 nm. Natural logarithm of the absorbance thus measured was plotted against time of light irradiation to find the gradient. Thus, a relative scale with respect to the quantum yield of tetraphenylporphyrin (φ^1O2) was calculated.
row,Compound,Relative scale for φ^1O2
1,"N-[2-(2,3,4,6-tetra-O-acetyl-β-D-glucopyranosyloxy)ethyl][5,6]-azafulleroid [(D-AcGlc-(CH2)2—N)C60]",0.6
2,"N, N′-bis[2-(β-D-glucopyranosyloxy)ethyl][5,6]-diazafulleroid [(D-Glc-(CH2)2—N)2C60]",0.6
3,"N-[2-(2,3,4,6-tetra-O-acetyl-α-D-mannopyranosyloxy)ethyl] [5,6]-azafulleroid [(D-AcMan-(CH2)2—N)C60]",0.8
4,"N-[2-(2,3,4,6-tetra-O-acetyl-β-D-galactopyranosyloxy)ethyl] [5,6]-azafulleroid [(D-AcGal-(CH2)2—N)C60]",0.7
5,"N, N′-bis[2-(2,3,6,8,9,13-hepta-O-acetyl-β-(α-D-glucopyranosyl (1-4)-D-glucopyranosyloxy)ethyl) [5,6]-diazafulleroid [(AcMal-(CH2)2—N)2C60]",0.6
6,"N, N′-bis[2-(2,3,4,6-tetra-O-acetyl-β-D-galactopyranosyloxy)ethyl] [5,6]-diazafulleroid [(D-AcGal-(CH2)2—N)2C60]",0.5
7,"N,N′-bis[2-(α-D-mannopyranosyloxy)ethyl] [5,6]-diazafulleroid [(D-Man-(CH2)2—N)2C60]",0.5
8,"N,N′-bis[2-(β-(α-D-glucopyranosyl(1-4)-D-glucopyranosyloxy)ethyl) [5,6]-diazafulleroid [(Mal-(CH2)2—N)2C60]",0.8
9,"N-[2-(2,3,4-tri-O-acetyl-β-D-xylopyranosyloxy)ethyl] [5,6]-azafulleroid [(D-AcXyl-(CH2)2—N)C60]",0.4
10,"N-[2-(β-D-glucopyranosyloxy)ethyl] [5,6]-azafulleroid [(D-Glc-(CH2)2—N)C60]",0.6
11,"N,N′-bis[2-(β-D-xylopyranosyloxy)ethyl] [5,6]-diazafulleroid [(D-Xyl-(CH2)2—N)2C60]",0.3
12,"N,Nα-bis[2-(2,3,4-tri-O-acetyl-β-D-xylopyranosyloxy)ethyl] [5,6]-diazafulleroid [(D-AcXyl-(CH2)2—N)2C60]",0.3
13,"N,N′-bis[2-(β-D-galactopyranosyloxy)ethyl] [5,6]-diazafulleroid [(D-Gal-(CH2)2—N)2C60]",0.7
14,"N-[2-(α-D-mannopyranosyloxy)ethyl] [5,6]-azafulleroid [(D-Man-(CH2—N)C60]",0.5
15,"OCC1OC(OCCn2c3c4c5c6c7c8c9c%10c%11c%12c%13c%10c%10c8c8c%14c%10c%10c%13c%13c%15c%12c%12c%16c%11c%11c9c7c7c9c%11c%16c%11c%16c%12c%15c%12c%15c%13c%10c%10c%14c(c4c86)c4c%10c%15c6c%12c%16c8c%11c9c(c75)c3c8c6c42)C(O)C(O)C1O [(D-Gal-(CH2)2—N)C60, N-[2-(β-D-galactopyranosyloxy)ethyl][5,6]-azafulleroid]",0.7
16,"OC1COC(OCCn2c3c4c5c6c7c8c9c%10c%11c%12c%13c%10c%10c8c8c%14c%10c%10c%13c%13c%15c%12c%12c%16c%11c%11c9c7c7c9c%11c%16c%11c%16c%12c%15c%12c%15c%13c%10c%10c%14c(c4c86)c4c%10c%15c6c%12c%16c8c%11c9c(c75)c3c8c6c42)C(O)C1O [(D-Xyl-(CH2)2—N)C60, N-[2-(β-D-xylopyranosyloxy)ethyl][5,6]-azafulleroid]",0.3
17,"N, N′-bis [2-(2,3,4,6-tetra-O-acetyl-α-D-mannopyranosyloxy)ethyl] [5,6]-diazafulleroid [(D-AcMan-(CH2)2—N)2C60]",0.7
18,"N, Nα-bis[2-(2,3,4,6-tetra-O-acetyl-β-D-glucopyranosyloxy)ethyl] [5,6]-diazafulleroid [(D-AcGlc-(CH2)2—N)2C60]",0.5
19,"N-[2-(2,3,6,8,9,13-hepta-O-acetyl-β-(α-D-glucopyranosyl (1-4)-D-glucopyranosyloxy)ethyl) [5,6]-azafulleroid [(AcMal-(CH2)2—N)C60]",0.7
20,"N-[2-(β-(α-D-glucopyranosyl(1-4)-D-glucopyranosyloxy)ethyl) [5,6]-azafulleroid [(Mal-(CH2)2—N)C60]",0.7

# System: HeLa cells
# Assay: Phototoxicity test: viability of HeLa cells by MTT assay, without and with light irradiation
# Type: cell-based
# Conditions: 10 μM, light irradiation as in Test Example 2, FIG. 2
# Method: The cytotoxicity of (Mal-(CH2)2—N)C60 (hereafter, referred to as Compound A) obtained in Example 12 was evaluated by the viability of HeLa cells using an MTT assay (Carmichal, J., W. G. DeGraff, A. F.Gazdar, J. D. Minna and J. B. Mitchell, Cancer Res., 1987, 47, 936-942). HeLa cells (5×10^3 cells/well) were incubated in a Dulbecco's modified Eagle's medium (DMEM) containing 10% fetal bovine serum (FBS) on a 96-well plate in 5% CO2 at 37° C. for 24 hours. After washing with phosphate buffered saline (PBS), 100 μl of (Mal-(CH2)2—N) C60 (DMEM) (−) solution (25 μM) as a fullerene derivative of the present invention was added to the cells, which were incubated for two hours. The cells were washed with PBS, replaced with 100 μl of DMEM(+) and theie viability was measured using the MTT assay. The viability was determined by measuring the absorbance at 570 nm (OD570). […] The ratio was calculated by the following formula: Cell survival ratio (%)=(OD 570 in the presence of Compound A/OD 570 in the absence of Compound A)×100. A cell survival ratio of 100% means the absence of cytotoxicity.
# HeLa cells (5×10^3 cells/well) were treated in the same the manner as in the above. Compound A was added to the cells and the resulting cell was irradiated with a 500 W halogen lamp for 8 minutes. After 24 hours' incubation, the supernatant was removed and formazan was dissolved in 100 μl of DMSO. Thereafter, the viability was determined by measuring the absorbance at 570 nm (OD570). […] The ratio was calculated by the following formula: Cell survival ratio (%)=(OD 570 in the presence of Compound A with irradiation/OD 570 in the absence of Compound A with irradiation)×100.
# Evaluations were made in the same manner as in Test Example 2 except that each of (Mal-(CH2)2—N)C60 (Compound A) obtained in Example 12 and (D-Xyl-(CH2)2—N)C60(hereafter, referred to as Compound B) obtained in Example 14 was used in amounts 1, 5, 10, 25 and […]. The obtained results of the cytotoxicities of Compounds A and B are shown in FIGS. 2 and 3, respectively.
row,Compound,"toxicity, share of the cells (photocytotoxicity)"
1,"N-[2-(β-(α-D-glucopyranosyl(1-4)-D-glucopyranosyloxy)ethyl) [5,6]-azafulleroid [(Mal-(CH2)2—N)C60]",about 50%

# Same assay, conditions: 25 μM, 500 W halogen lamp for 8 minutes, 24 hours' incubation, MTT OD570, FIG. 1
row,Compound,cytotoxicity (cell survival ratio) with light irradiation
1,"N-[2-(β-(α-D-glucopyranosyl(1-4)-D-glucopyranosyloxy)ethyl) [5,6]-azafulleroid [(Mal-(CH2)2—N)C60]",cytotoxicity is observed

# Same assay, conditions: 25 μM, two hours incubation, no light irradiation, MTT OD570, FIG. 1
row,Compound,cytotoxicity (cell survival ratio) without light irradiation
1,"N-[2-(β-(α-D-glucopyranosyl(1-4)-D-glucopyranosyloxy)ethyl) [5,6]-azafulleroid [(Mal-(CH2)2—N)C60]",cytotoxicity is not observed
